What all share (format): cell-based
Experiment [1] addresses Phospholipase A2 (Rattus norvegicus, UniProt P04055). Kind of experiment: Inhibition of rat cloned sPLA2-1B expressed in HEK293 cells.
Experiment [2] deals with T1, Group 10 secretory phospholipase A2 (Homo sapiens, UniProt O15496).
T1 sequence (O15496 whole entry): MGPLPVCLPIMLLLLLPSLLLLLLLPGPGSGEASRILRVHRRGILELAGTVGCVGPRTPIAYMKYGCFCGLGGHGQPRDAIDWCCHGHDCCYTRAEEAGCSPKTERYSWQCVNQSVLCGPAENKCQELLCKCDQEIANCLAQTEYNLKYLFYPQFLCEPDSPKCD
The experiment is described as follows: Inhibition of human cloned sPLA2-10 expressed in HEK293 cells.

In experiment [3] the target is T2, Cytosolic phospholipase A2 (Homo sapiens, UniProt P47712).
T2 sequence (P47712 whole entry): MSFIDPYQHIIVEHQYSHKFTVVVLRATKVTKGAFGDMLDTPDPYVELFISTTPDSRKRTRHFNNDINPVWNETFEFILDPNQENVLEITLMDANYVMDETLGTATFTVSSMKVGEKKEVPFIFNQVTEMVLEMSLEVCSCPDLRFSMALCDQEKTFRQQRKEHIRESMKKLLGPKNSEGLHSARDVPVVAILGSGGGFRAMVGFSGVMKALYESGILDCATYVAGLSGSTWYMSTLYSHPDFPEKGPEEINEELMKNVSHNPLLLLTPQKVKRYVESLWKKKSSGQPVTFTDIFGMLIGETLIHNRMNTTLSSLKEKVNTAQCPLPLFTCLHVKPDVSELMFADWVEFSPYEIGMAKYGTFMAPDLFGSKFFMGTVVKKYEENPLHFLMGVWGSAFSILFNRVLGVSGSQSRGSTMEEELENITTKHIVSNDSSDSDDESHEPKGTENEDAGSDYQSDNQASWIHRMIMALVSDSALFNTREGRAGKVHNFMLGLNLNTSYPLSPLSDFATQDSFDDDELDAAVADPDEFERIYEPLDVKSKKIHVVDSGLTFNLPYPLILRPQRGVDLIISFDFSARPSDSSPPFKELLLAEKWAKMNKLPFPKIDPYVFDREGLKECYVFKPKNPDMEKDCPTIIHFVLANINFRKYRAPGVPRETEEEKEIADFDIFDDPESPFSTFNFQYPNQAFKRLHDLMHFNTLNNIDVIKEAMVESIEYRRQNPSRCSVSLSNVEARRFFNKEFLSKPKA
The experiment is described as follows: Inhibition of human cloned cPLA2 expressed in HEK293 cells.

Experiment [4] in a line: Inhibition of human cloned sPLA2-5 expressed in HEK293 cells.

A word on the IC50: it is the concentration at which inhibition is half-maximal. Lower therefore signals greater potency in that assay.

Chain of Phospholipase A2 (P04055 whole entry): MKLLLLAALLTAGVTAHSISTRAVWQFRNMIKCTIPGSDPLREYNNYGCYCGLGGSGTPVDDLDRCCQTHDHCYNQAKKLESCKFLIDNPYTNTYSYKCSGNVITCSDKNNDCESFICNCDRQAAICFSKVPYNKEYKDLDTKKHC

For the compound `O=c1cc(-c2ccc(-c3c(-c4ccccc4)oc4ccccc4c3=O)cc2)oc2ccccc12`, the concentration for half-maximal inhibition (IC50) is above 100 µM in experiment [1], above 100 µM in experiment [2], 8.42 µM in experiment [3] and 6.5 µM in experiment [4].
For the compound `O=c1cc(-c2ccc(-c3ccc(-c4cc(=O)c5ccccc5o4)cc3)cc2)oc2ccccc12`, the concentration for half-maximal inhibition (IC50) in experiment [1] was above 100 µM; in experiment [2], above 100 µM; in experiment [3], 6 µM; in experiment [4], 8.7 µM.
As for `O=c1cc(-c2ccc(-c3ccc4oc(-c5ccccc5)cc(=O)c4c3)cc2)oc2ccccc12`, the 50% inhibitory concentration (IC50) in experiment [1] was above 100 µM; in experiment [2], above 100 µM; in experiment [3], 11.9 µM; in experiment [4] it was 10.8 µM.
Consider `O=c1cc(-c2ccc(-c3cccc(-c4cc(=O)c5ccccc5o4)c3)cc2)oc2ccccc12`, for which the concentration for half-maximal inhibition (IC50) in experiment [1] was above 100 µM; in experiment [2] it was above 100 µM; in experiment [3], 38.7 µM; in experiment [4], 23.9 µM.
`O=c1cc(-c2cccc(-c3ccc4oc(-c5ccccc5)cc(=O)c4c3)c2)oc2ccccc12`: the IC50 in experiment [1] was above 100 µM; in experiment [2], 27.6 µM; in experiment [3] it was 16.8 µM; in experiment [4], 12.8 µM.
`O=c1cc(-c2ccccc2)oc2ccc(-c3ccc4oc(-c5ccccc5)cc(=O)c4c3)cc12`: the IC50 was above 100 µM in experiment [1], above 100 µM in experiment [2], 48.1 µM in experiment [3] and 50 µM in experiment [4].
For `O=c1cc(-c2ccc(O)c(-c3c(O)cc(O)c4c(=O)cc(-c5ccc(O)cc5)oc34)c2)oc2cc(O)cc(O)c12` [AMENTOFLAVONE], the IC50 in experiment [1] is above 100 µM; in experiment [2] it was above 100 µM; in experiment [3], above 100 µM; in experiment [4], 41.8 µM.
Consider `O=c1cc(-c2ccc(Oc3cc(-c4cc(=O)c5c(O)cc(O)cc5o4)ccc3O)cc2)oc2cc(O)cc(O)c12` [OCHNAFLAVONE], for which the IC50 in experiment [1] is above 100 µM; in experiment [2] it was above 100 µM; in experiment [3] it was above 100 µM; in experiment [4], 17.6 µM.

Values taken from ChEMBL document CHEMBL1140451, “Inhibitory effect of synthetic C-C biflavones on various phospholipase A(2)s activity” (Bioorg Med Chem, 2007).
